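Grown in 96-well plates, cells were treated for 48 hours with each compound at five concentrations. Insufficient inhibition: endpoint recorded as highest concentration tested. At the GI50, growth is halved. TGI: total growth inhibition.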
Columns and labels:
Assay in all cases: NCI anticancer screen, dose series, 48 h
[1] = system: DU-145 prostate
[2] = system: OVCAR-8 ovarian
[3] = system: UACC-257 melanoma
[4] = system: MOLT-4 leukemia
[5] = system: HCT-15 colon
[6] = system: T-47D breast
[7] = system: HCC-2998 colon
[8] = system: 786-0 renal
[9] = system: SK-MEL-28 melanoma
[10] = system: NCI-H522 lung
[11] = system: SK-MEL-5 melanoma
[12] = system: LOX IMVI melanoma
[13] = system: EKVX NSCLC
[14] = system: OVCAR-5 ovarian
[15] = system: K-562 leukemia
[16] = system: NCI-H460 lung
[17] = system: NCI-H23 lung
[18] = system: OVCAR-3 ovarian
[19] = system: SN12C renal
[20] = system: SK-MEL-2 melanoma
[21] = system: NCI/ADR-RES ovarian
[22] = system: U251 CNS
[23] = system: MDA-MB-435
[24] = system: RXF 393 renal
[25] = system: CCRF-CEM leukemia
[26] = system: HL-60(TB) leukemia
[27] = system: KM12 colon
[28] = system: HOP-92 NSCLC
[29] = system: ACHN renal
[30] = system: M14 melanoma
[31] = system: MDA-MB-231 breast
[32] = system: OVCAR-4 ovarian
[33] = system: SF-268 CNS
[34] = system: SK-OV-3 ovarian
[35] = system: SW-620 colon
[36] = system: UACC-62 melanoma
[37] = system: PC-3 prostate
[38] = system: UO-31 renal
[39] = system: CAKI-1 renal
[40] = system: NCI-H226 lung
[41] = system: BT-549 breast
[42] = system: TK-10 renal
[43] = system: COLO 205 colon
[44] = system: A549 NSCLC
[45] = system: HCT-116 colon
[46] = system: SF-295 CNS
[47] = system: SNB-19 CNS
[48] = system: SR leukemia
[49] = system: HOP-62 NSCLC
[50] = system: HT29 colon
[51] = system: A498 renal
[52] = system: MALME-3M melanoma

CCC(C)CN=C(N)c1ccc(N2CCN(c3ccc(C(N)=NCC(C)CC)cc3)CC2)cc1 (centres undefined)
GI50 [1]: 5.72 µM
TGI [1]: > 100 µM
GI50 [2]: 5.58 µM
TGI [2]: > 100 µM
GI50 [3]: 20.3 µM
TGI [3]: > 100 µM
GI50 [4]: 14.2 µM
TGI [4]: 38.4 µM
GI50 [5]: 26.5 µM
TGI [5]: > 100 µM
GI50 [6]: 18.5 µM
TGI [6]: > 100 µM
GI50 [7]: 11.5 µM
TGI [7]: > 100 µM
GI50 [8]: 7.33 µM
TGI [8]: 87.3 µM
GI50 [9]: 16.9 µM
TGI [9]: 41.8 µM
GI50 [10]: 6.49 µM
TGI [10]: 27.2 µM
GI50 [11]: 1.71 µM
TGI [11]: 12.3 µM
GI50 [12]: 12.1 µM
TGI [12]: 41.8 µM
GI50 [13]: 0.955 µM
TGI [13]: 23.3 µM
GI50 [14]: 33 µM
TGI [14]: > 100 µM
GI50 [15]: 2.84 µM
TGI [15]: 14 µM
GI50 [16]: 3.34 µM
TGI [16]: 19.1 µM
GI50 [17]: 5.2 µM
TGI [17]: 36.3 µM
GI50 [18]: 3.45 µM
TGI [18]: 35.4 µM
GI50 [19]: 2.3 µM
TGI [19]: 8.89 µM
GI50 [20]: 8.67 µM
TGI [20]: 45.3 µM
GI50 [21]: 85.6 µM
TGI [21]: > 100 µM
GI50 [22]: 3.69 µM
TGI [22]: 19.4 µM
GI50 [23]: 5.48 µM
TGI [23]: 28.5 µM
GI50 [24]: 15.9 µM
TGI [24]: 96.7 µM
GI50 [25]: 6.09 µM
TGI [25]: 40.7 µM
GI50 [26]: 10.9 µM
TGI [26]: 39.9 µM
GI50 [27]: 7.25 µM
TGI [27]: 52 µM
GI50 [28]: 0.29 µM
TGI [28]: 8.03 µM
GI50 [29]: 48 µM
TGI [29]: > 100 µM
GI50 [30]: 8.64 µM
TGI [30]: 43.5 µM
GI50 [31]: 6.19 µM
TGI [31]: 37.3 µM
GI50 [32]: 19.3 µM
TGI [32]: > 100 µM
GI50 [33]: 3.93 µM
TGI [33]: 17.4 µM
GI50 [34]: 23.1 µM
TGI [34]: 79.8 µM
GI50 [35]: 17 µM
TGI [35]: > 100 µM
GI50 [36]: 11.4 µM
TGI [36]: 28.1 µM
GI50 [37]: 7.56 µM
TGI [37]: 69.3 µM
GI50 [38]: 79.5 µM
TGI [38]: > 100 µM
GI50 [39]: 30 µM
TGI [39]: 92.3 µM
GI50 [40]: 6.54 µM
TGI [40]: 31.3 µM
GI50 [41]: 2.91 µM
TGI [41]: 12.5 µM
GI50 [42]: 15.1 µM
TGI [42]: > 100 µM
GI50 [43]: 23.4 µM
TGI [43]: > 100 µM
GI50 [44]: 10.5 µM
TGI [44]: > 100 µM
GI50 [45]: 8.51 µM
TGI [45]: 60 µM
GI50 [46]: 2.9 µM
TGI [46]: 17.4 µM
GI50 [47]: 12.9 µM
TGI [47]: 69.2 µM
GI50 [48]: 0.443 µM
TGI [48]: 3.01 µM
GI50 [49]: 4.51 µM
TGI [49]: 24.2 µM
GI50 [50]: 11 µM
TGI [50]: > 100 µM

N=C(N)c1ccc(-c2ccc(-c3ccccc3)s2)s1
GI50 [1]: < 0.01 µM
TGI [1]: 1.1 µM
GI50 [51]: < 0.01 µM
TGI [51]: 1.34 µM
GI50 [3]: 0.156 µM
TGI [3]: 2.31 µM
GI50 [7]: 1.05 µM
TGI [7]: 2.36 µM
GI50 [14]: 0.374 µM
TGI [14]: 2.45 µM
GI50 [17]: < 0.01 µM
TGI [17]: 1.37 µM
GI50 [19]: 0.156 µM
TGI [19]: 1.95 µM
GI50 [20]: 1.76 µM
TGI [20]: 3.38 µM
GI50 [26]: 0.0287 µM
TGI [26]: 1.43 µM
GI50 [28]: 0.0655 µM
TGI [28]: 2.17 µM
GI50 [30]: < 0.01 µM
TGI [30]: 0.0155 µM
GI50 [31]: 0.753 µM
TGI [31]: 2.5 µM
GI50 [36]: 0.0156 µM
TGI [36]: 1.3 µM
GI50 [37]: 0.249 µM
TGI [37]: 2.03 µM
GI50 [41]: 0.0267 µM
TGI [41]: 2 µM
GI50 [46]: 0.0321 µM
TGI [46]: 0.273 µM
GI50 [52]: 1.17 µM
TGI [52]: 2.59 µM

From PubChem BioAssay (NCI)
